Laboratory results as given in patent publication US9663486B2, “Selectively substituted quinoline compounds” (EISAI R&D MANAGEMENT CO., LTD., priority 2013, dated 2017).

Assays:
mouse TLR7 = molecular target: T1, mouse TLR7 (Mus musculus, UniProt P58681); test: Short-term in vivo (STIV) assay, plasma IL-6 after R848; details: plasma IL-6 after R848 s.c., BALB/c mice
T1 construct: tissue Jackson Labs; host or cells: live female BALB/c mice
T1 sequence (P58681 27-1050): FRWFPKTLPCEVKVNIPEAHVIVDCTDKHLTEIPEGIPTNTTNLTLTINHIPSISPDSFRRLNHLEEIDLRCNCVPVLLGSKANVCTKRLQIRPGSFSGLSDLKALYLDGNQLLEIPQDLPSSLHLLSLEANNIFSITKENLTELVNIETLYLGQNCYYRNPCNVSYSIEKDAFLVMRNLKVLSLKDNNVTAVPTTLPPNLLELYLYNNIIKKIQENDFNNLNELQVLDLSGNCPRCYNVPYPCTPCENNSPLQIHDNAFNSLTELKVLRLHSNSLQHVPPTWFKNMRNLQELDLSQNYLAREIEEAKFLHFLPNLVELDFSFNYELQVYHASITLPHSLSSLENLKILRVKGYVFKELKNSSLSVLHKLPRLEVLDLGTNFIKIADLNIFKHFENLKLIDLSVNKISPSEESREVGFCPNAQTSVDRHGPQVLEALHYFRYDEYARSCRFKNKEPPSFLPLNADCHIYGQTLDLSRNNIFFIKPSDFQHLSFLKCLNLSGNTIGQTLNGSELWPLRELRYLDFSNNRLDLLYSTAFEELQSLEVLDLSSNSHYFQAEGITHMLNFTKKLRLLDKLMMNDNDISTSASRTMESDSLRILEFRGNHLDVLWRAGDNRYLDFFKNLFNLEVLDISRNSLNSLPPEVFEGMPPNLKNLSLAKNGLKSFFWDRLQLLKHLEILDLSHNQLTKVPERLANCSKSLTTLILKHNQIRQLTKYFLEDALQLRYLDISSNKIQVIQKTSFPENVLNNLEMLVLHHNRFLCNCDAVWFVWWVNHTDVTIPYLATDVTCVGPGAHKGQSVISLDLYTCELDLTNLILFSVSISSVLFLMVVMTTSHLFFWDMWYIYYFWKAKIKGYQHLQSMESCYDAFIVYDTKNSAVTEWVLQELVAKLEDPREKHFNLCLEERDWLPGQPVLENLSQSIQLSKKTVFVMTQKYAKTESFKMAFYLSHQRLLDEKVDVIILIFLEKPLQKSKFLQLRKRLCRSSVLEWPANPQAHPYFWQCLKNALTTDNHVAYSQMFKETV
Procedure: To assess compound potency in vivo against mouse TLR7, a short-term in vivo (STIV) assay was utilized. Briefly, mice were orally dosed with compounds and at various time points afterwards were injected subcutaneously with agonist R848 to stimulate TLR7. The plasma IL-6 level following R848 stimulation was then measured by ELISA to assess compound potency and duration-of-action. […] Therefore, the activity of compounds in the STIV assay can be confidently attributed to their modulation of the TLR7 pathway.
Six to eight week old female BALB/c mice (Jackson Labs, Bar Harbor, Me.) were dosed by oral gavage in 200 ul volume with antagonist compounds formulated in 0.5% aqueous methyl-cellulose (Sigma, St. Louis, Mo.). At various time points afterwards, mice were injected subcutaneously (s.c.) in 100 ul volume with 15 ug R848 (Resiquimod; GLSynthesis, Worcester, Mass.) to stimulate TLR7. Blood plasma was collected by cardiac puncture, and levels of IL-6 at 1.5 hours after TLR7 stimulation were then assessed by standard ELISA procedure according to the manufacturer's recommended protocol (R&D Systems).

Human TLR7/8 = test: Human PBMC cell-based assay, TLR7/8 (RNA-Ig), cytokine ELISA; details: Hu PBMC; ligand RNA-Ig; read-out: IC50, IL-6, Human TLR7/8

C[C@H]1C[C@@H](N)CN(c2ccc(C#N)c3ncccc23)C1 [ER-888840, 5-((3R,5S)-3-amino-5-methylpiperidin-1-yl)quinoline-8-carbonitrile]
% Suppression vs. Vehicle (mouse TLR7; 6 h after oral dose, 33 mg/kg): 100% | % Suppression vs. Vehicle (mouse TLR7; 13 hr after oral dose, 11 mg/kg): 53% | % Suppression vs. Vehicle (mouse TLR7; 13 hr after oral dose, 33 mg/kg): 95% | % Suppression vs. Vehicle (mouse TLR7; 13 hr after oral dose, 100 mg/kg): 100% | % Suppression vs. Vehicle (mouse TLR7; 24 hr after oral dose, 11 mg/kg): 24% | % Suppression vs. Vehicle (mouse TLR7; 24 hr after oral dose, 33 mg/kg): 0% | % Suppression vs. Vehicle (mouse TLR7; 24 hr after oral dose, 100 mg/kg): 98% | % Suppression vs. Vehicle (mouse TLR7; 24 hr after oral dose, 300 mg/kg): 100% | IC50 (Human TLR7/8): 1.4 nM
